PubChem BioAssay AID330 (DTP/NCI, 2004)
Where “and” joins values, the source holds several entries; their conditions need not be identical. Equal entries are not always repeated. Inconclusive results and toxic doses are left out. Rule for the calls: active = survival T/C of 150% or more; inactive = T/C below 125% in these data.

Tested on: P388 leukemia ip, CD2F1 mice, survival T/C
Test: NCI In Vivo Anticancer Drug Screen. Data for tumor model P388 Leukemia (intraperitoneal) in CD2F1 (CDF1) mice
Details: endpoint: median survival time, higher = longer survival
Method in brief: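 Mice carrying the transplanted tumor received test compound or vehicle. Survival was recorded in each group, and the value is the treated-group measurement divided by that of the vehicle-treated control group.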

[1] = dose: 100.0 mg/kg/injection, schedule: Q04DX003 (ip), vehicle: Klucel (hydroxypropylcellulose) (HPC)
[2] = dose: 200.0 mg/kg/injection, schedule: Q04DX003 (ip), vehicle: Klucel (hydroxypropylcellulose) (HPC)
[3] = dose: 400.0 mg/kg/injection, schedule: Q04DX003 (ip), vehicle: Klucel (hydroxypropylcellulose) (HPC)
[4] = dose: 50.0 mg/kg/injection, schedule: Q04DX003 (ip), vehicle: saline with Tween-80
[5] = dose: 100.0 mg/kg/injection, schedule: Q04DX003 (ip), vehicle: saline with Tween-80
[6] = dose: 200.0 mg/kg/injection, schedule: Q04DX003 (ip), vehicle: saline with Tween-80
[7] = dose: 400.0 mg/kg/injection, schedule: Q04DX003 (ip), vehicle: saline with Tween-80
[8] = dose: 50.0 mg/kg/injection, schedule: Q01DX005 (ip), vehicle: saline with Tween-80
[9] = dose: 100.0 mg/kg/injection, schedule: Q01DX005 (ip), vehicle: saline with Tween-80
[10] = dose: 200.0 mg/kg/injection, schedule: Q01DX005 (ip), vehicle: saline with Tween-80
[11] = dose: 50.0 mg/kg/injection, schedule: Q01DX009 (ip), vehicle: Klucel (hydroxypropylcellulose) (HPC)
[12] = dose: 12.5 mg/kg/injection, schedule: Q01DX009 (ip), vehicle: saline with Tween-80
[13] = dose: 60.0 mg/kg/injection, schedule: Q01DX005 (ip), vehicle: Klucel (hydroxypropylcellulose) (HPC)
[14] = dose: 120.0 mg/kg/injection, schedule: Q01DX005 (ip), vehicle: Klucel (hydroxypropylcellulose) (HPC)
[15] = dose: 25.0 mg/kg/injection, schedule: Q01DX009 (ip), vehicle: saline with Tween-80
[16] = dose: 100.0 mg/kg/injection, schedule: Q01DX009 (ip), vehicle: saline with Tween-80

Measured: T/C

CCOC(=O)c1cnc(N)nc1CCC(=O)O
inactive: dose: 37.5 mg/kg/injection, schedule: Q01DX009 (ip), vehicle: saline with Tween-80 107 % of control | dose: 75.0 mg/kg/injection, schedule: Q01DX009 (ip), vehicle: saline with Tween-80 102 % of control | dose: 150.0 mg/kg/injection, schedule: Q01DX009 (ip), vehicle: saline with Tween-80 107 % of control

O=S(=O)(Cc1ccccc1)Oc1ccccc1
inactive: [1] 109 % of control | [2] 103 % of control | [3] 94 % of control

CCOC(=O)NC(=S)Nc1ncn[nH]1
inactive: [4] 100 % of control | [5] 95 % of control | [6] 100 % of control | [7] 99 % of control

CCOC(=O)NC1CCc2ccccc2C1 (configuration not stated)
inactive: [1] 98 % of control | [2] 108 % of control | [3] 95 % of control

COCC1(C)CC2CCCCC2CC1(C)O (configuration not stated)
inactive: [8] 93 % of control | [9] 95 % of control | [10] 86 % of control

C=CC(C)(C)c1cc2cc3c(cc2oc1=O)OC1(C)CCC(C(C)(C)O)OC1C3 (configuration not stated)
inactive: dose: 12.5 mg/kg/injection, schedule: Q01DX005 (ip), vehicle: saline with Tween-80 99 % of control | dose: 25.0 mg/kg/injection, schedule: Q01DX005 (ip), vehicle: saline with Tween-80 99 % of control | [8] 93 % of control | [9] 89 % of control

CCOC(=O)c1cc(/C=C/c2ccc(Cl)cc2)on1
inactive: dose: 60.0 mg/kg/injection, schedule: Q01DX005 (ip), vehicle: saline with Tween-80 91 % of control | dose: 120.0 mg/kg/injection, schedule: Q01DX005 (ip), vehicle: saline with Tween-80 90 % of control

COC(=O)C1c2c(C)cc3n2C(C(C)=CC3)C1C(=O)OC (configuration not stated)
inactive: [1] 99 % of control | [2] 96 % of control | [3] 99 % of control

NC(=O)N/N=C/c1cccc(O)c1O
inactive: [11] 101 % of control | dose: 100.0 mg/kg/injection, schedule: Q01DX009 (ip), vehicle: Klucel (hydroxypropylcellulose) (HPC) 107 % of control | dose: 200.0 mg/kg/injection, schedule: Q01DX009 (ip), vehicle: Klucel (hydroxypropylcellulose) (HPC) 116 % of control

Cc1ncccc1[N+](=O)[O-]
inactive: dose: 12.5 mg/kg/injection, schedule: Q01DX009 (ip), vehicle: saline + Tween-80 + alcohol 100 % of control | dose: 25.0 mg/kg/injection, schedule: Q01DX009 (ip), vehicle: saline + Tween-80 + alcohol 100 % of control | dose: 50.0 mg/kg/injection, schedule: Q01DX009 (ip), vehicle: saline + Tween-80 + alcohol 106 % of control and 93 % of control

c1ccc(CN2COc3c4c(c5ccccc5c3C2)CN(Cc2ccccc2)CO4)cc1
inactive: [8] 90 % of control | [9] 103 % of control | [10] 93 % of control

C=C1C(=O)OC2CC(C)C3CC(O)OC(O)C3(C)CC12 (configuration not stated)
inactive: dose: 1.56 mg/kg/injection, schedule: Q01DX009 (ip), vehicle: saline 115 % of control | dose: 3.12 mg/kg/injection, schedule: Q01DX009 (ip), vehicle: saline with Tween-80 102 % of control | dose: 3.13 mg/kg/injection, schedule: Q01DX009 (ip), vehicle: saline 117 % of control | dose: 6.25 mg/kg/injection, schedule: Q01DX009 (ip), vehicle: saline with Tween-80 107 % of control | [12] 99 % of control and 113 % of control

O=[N+]([O-])c1ccc(Sc2nccc(Cl)n2)c([N+](=O)[O-])c1
inactive: dose: 50.0 mg/kg/injection, schedule: Q01DX009 (ip), vehicle: suspension in saline 100 % of control | dose: 100.0 mg/kg/injection, schedule: Q01DX009 (ip), vehicle: saline 92 % of control | dose: 100.0 mg/kg/injection, schedule: Q01DX009 (ip), vehicle: suspension in saline 98 % of control | dose: 200.0 mg/kg/injection, schedule: Q01DX009 (ip), vehicle: saline 104 % of control | dose: 200.0 mg/kg/injection, schedule: Q01DX009 (ip), vehicle: suspension in saline 91 % of control

Cn1c(N)c(C(=S)N2CCOCC2)c(=O)n(C)c1=O
inactive: dose: 25.0 mg/kg/injection, schedule: Q04DX002 (ip), vehicle: saline with Tween-80 100 % of control | dose: 50.0 mg/kg/injection, schedule: Q04DX002 (ip), vehicle: saline with Tween-80 104 % of control | dose: 100.0 mg/kg/injection, schedule: Q04DX002 (ip), vehicle: saline with Tween-80 104 % of control

[CH3][Sn]([CH3])([Br])[Br].c1ccc(-c2nnc(-c3ccccn3)nc2-c2ccccc2)cc1
inactive: dose: 30.0 mg/kg/injection, schedule: Q01DX005 (ip), vehicle: Klucel (hydroxypropylcellulose) (HPC) 107 % of control | [13] 113 % of control and 95 % of control | [14] 100 % of control and 106 % of control

CCOc1ccccc1N=Nc1c(C)nn(C(N)=S)c1OCC
inactive: [13] 106 % of control | [14] 116 % of control | dose: 240.0 mg/kg/injection, schedule: Q01DX005 (ip), vehicle: Klucel (hydroxypropylcellulose) (HPC) 115 % of control

COc1cc(C(=O)Nc2ccc(S(=O)(=O)Nc3nc(C)cc(C)n3)cc2)cc(OC)c1OC
inactive: [8] 98 % of control | [9] 88 % of control | [10] 103 % of control

CN1CC2CC3=C(CCC45CC6C(C=C34)C63CCC4(CC67CCC8C9(C)CCCC8%10C(C6CC4CC7%10)N(C)C9)OC53)C(C)(C2)C1 (configuration not stated)
inactive: dose: 12.5 mg/kg/injection, schedule: Q01DX009 (ip), vehicle: Klucel (hydroxypropylcellulose) (HPC) 93 % of control | dose: 25.0 mg/kg/injection, schedule: Q01DX009 (ip), vehicle: Klucel (hydroxypropylcellulose) (HPC) 103 % of control | [11] 111 % of control

O=c1[nH]c2c(ccc3cccnc32)c2c1CCC2
inactive: dose: 12.5 mg/kg/injection, schedule: Q04DX003 (ip), vehicle: saline with Tween-80 98 % of control | dose: 25.0 mg/kg/injection, schedule: Q04DX003 (ip), vehicle: saline with Tween-80 95 % of control | [4] 98 % of control

CC1C(c2ccccc2)OC(c2ccccc2)N1C (configuration not stated)
inactive: dose: 12.5 mg/kg/injection, schedule: Q01DX005 (ip), vehicle: water 93 % of control | dose: 25.0 mg/kg/injection, schedule: Q01DX005 (ip), vehicle: water 93 % of control | dose: 50.0 mg/kg/injection, schedule: Q01DX005 (ip), vehicle: water 98 % of control | dose: 100.0 mg/kg/injection, schedule: Q01DX005 (ip), vehicle: water 93 % of control | dose: 200.0 mg/kg/injection, schedule: Q01DX005 (ip), vehicle: water 98 % of control

O=[N+]([O-])c1ccc(-c2nc(/C=N/N3CCCCC3)cs2)o1
inactive: [15] 100 % of control | dose: 50.0 mg/kg/injection, schedule: Q01DX009 (ip), vehicle: saline with Tween-80 100 % of control | [16] 99 % of control

S=c1nc[nH]c2c1ncn2C1CCCCO1 (configuration not stated)
inactive: dose: 15.0 mg/kg/injection, schedule: Q01DX009 (ip), vehicle: saline with Tween-80 86 % of control | dose: 30.0 mg/kg/injection, schedule: Q01DX009 (ip), vehicle: saline with Tween-80 104 % of control | dose: 60.0 mg/kg/injection, schedule: Q01DX009 (ip), vehicle: saline with Tween-80 113 % of control | dose: 62.5 mg/kg/injection, schedule: Q01DX009 (ip), vehicle: Klucel (hydroxypropylcellulose) (HPC) 86 % of control | [16] 118 % of control | [5] 91 % of control | dose: 120.0 mg/kg/injection, schedule: Q01DX009 (ip), vehicle: saline with Tween-80 108 % of control | dose: 125.0 mg/kg/injection, schedule: Q01DX009 (ip), vehicle: Klucel (hydroxypropylcellulose) (HPC) 109 % of control | dose: 200.0 mg/kg/injection, schedule: Q01DX009 (ip), vehicle: saline with Tween-80 104 % of control | [6] 108 % of control | dose: 250.0 mg/kg/injection, schedule: Q01DX009 (ip), vehicle: Klucel (hydroxypropylcellulose) (HPC) 90 % of control | [7] 112 % of control

NC(C(=O)O)C(F)C(=O)O (configuration not stated)
inactive: dose: 10.0 mg/kg/injection, schedule: Q01DX009 (ip), vehicle: saline 109 % of control | dose: 20.0 mg/kg/injection, schedule: Q01DX009 (ip), vehicle: saline 106 % of control | dose: 40.0 mg/kg/injection, schedule: Q01DX009 (ip), vehicle: saline 100 % of control

C[N+]1(CSc2ccccc2)CCCCC1
inactive: [12] 100 % of control | [15] 98 % of control
